The values below come from PMC7259601 (PLoS ONE, 2020).

Structures are written as SMILES.

Test [1] addresses T1, MAO-A (Mus musculus, UniProt Q64133).
T1 construct: from tissue; host or cells: mouse brain (homogenate ex vivo; living animal in the L-5-HTP test)
T1 sequence (Q64133 1-526): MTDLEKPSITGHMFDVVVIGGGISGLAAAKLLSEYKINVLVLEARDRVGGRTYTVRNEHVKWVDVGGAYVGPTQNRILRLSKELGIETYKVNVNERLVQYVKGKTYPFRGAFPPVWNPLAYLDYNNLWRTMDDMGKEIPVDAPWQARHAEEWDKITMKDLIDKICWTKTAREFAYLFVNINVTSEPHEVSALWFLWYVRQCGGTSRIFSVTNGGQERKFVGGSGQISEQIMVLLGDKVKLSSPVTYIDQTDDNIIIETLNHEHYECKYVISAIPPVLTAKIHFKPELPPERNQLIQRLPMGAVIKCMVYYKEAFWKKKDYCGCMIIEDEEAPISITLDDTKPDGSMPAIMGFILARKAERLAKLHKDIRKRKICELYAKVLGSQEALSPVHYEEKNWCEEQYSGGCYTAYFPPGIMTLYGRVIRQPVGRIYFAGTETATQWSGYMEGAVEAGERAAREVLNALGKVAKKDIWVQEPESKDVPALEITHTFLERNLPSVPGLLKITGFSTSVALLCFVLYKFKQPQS
Briefly: L-5-HTP-induced symptoms test. The test is classed as in vivo, CD1 mice. The method, then: Male C57BL/6 mice (8 weeks of age, 25-30 g) procured from Harlan Interfauna Iberica were housed in the same condition that in MAO-B PEA section. This test was performed essentially as previously described. Test compound was administered p.o. at several dose levels to groups of mice (N = 10/dose) 60 min before an i.p. injection of L-5-HTP (100 mg/kg). This dose of 5-L-HTP produced no effects in control animals. […] Studies were performed in accordance with the institutional guidelines for the care and use of laboratory animals (European Communities Council Directive 86/609/EEC) established by the Ethical Committee for Animal Experimentation at the PRAAL-PCB.
This test was performed essentially as previously described [90](Koe et al., 1983). Test compound was administered p.o. at several dose levels 60 min before an i.p. injection of L-5-HTP. […] One score assigned to each symptom observed per animal, giving a maximal obtainable score of 30 per group of 10 mice.
Behavior was rated as outline above.

In test [2] the target is MAO-B (Mus musculus, UniProt Q8BW75). The conditions noted are these: p.o. gavage, followed by 25 mg/kg PEA.
Chain of MAO-B (Mus musculus, UniProt Q8BW75) (Q8BW75 whole entry): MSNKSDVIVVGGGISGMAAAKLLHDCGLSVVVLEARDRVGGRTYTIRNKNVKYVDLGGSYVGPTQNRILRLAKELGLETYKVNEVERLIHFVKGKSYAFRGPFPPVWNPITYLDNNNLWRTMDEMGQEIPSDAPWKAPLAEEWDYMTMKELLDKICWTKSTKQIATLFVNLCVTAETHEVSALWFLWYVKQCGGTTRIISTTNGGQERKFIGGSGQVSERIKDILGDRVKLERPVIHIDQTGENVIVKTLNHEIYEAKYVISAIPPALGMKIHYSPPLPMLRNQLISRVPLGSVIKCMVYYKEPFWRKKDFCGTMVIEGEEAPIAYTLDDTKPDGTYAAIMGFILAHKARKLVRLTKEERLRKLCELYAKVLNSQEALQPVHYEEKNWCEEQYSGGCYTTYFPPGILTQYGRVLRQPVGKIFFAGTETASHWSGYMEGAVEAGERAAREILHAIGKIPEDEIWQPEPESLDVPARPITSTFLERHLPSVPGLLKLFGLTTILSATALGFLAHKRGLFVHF
Test [3] relates to NMDA receptor NR1 subunit hypofunction mice. More on the design: method as in PMID 30580376. The conditions noted are these: cited from earlier work.
Test [4] relates to KDM1A-E8a KO mice. More on the design: method as in PMID 26976584. As to conditions: cited from earlier work.
The subject of test [5] is SETD1 +/- mice. More on the design: method as in PMID 31606247. As to conditions: cited from earlier work.
Test [6] addresses T2, brain MAO-B (Mus musculus, UniProt Q8BW75).
T2 construct: from tissue; host or cells: mouse brain (homogenate ex vivo; living animal in the MPTP and PEA tests)
Briefly: MPTP neurotoxicity model. Format: in vivo, C57BL/6 mice. The conditions noted are these: i.p. 3 mg/kg.

In test [7] the test system is SAMP8 mice. Briefly: Novel Object Recognition Test (NORT). The conditions noted are these: 3 mg/kg/day (Exp4), p = 0.12. Format: in vivo, mouse. As for the experimental part: Both male and female mice from the senescence accelerated strain SAMP8 and its control SAMR1 of different ages (see Table S3 for details) were used in these studies. Mice were breed in the animal facilities of the Pharmacy Faculty (University of Barcelona), maintained in a at 22 ± 2 °C controlled temperature in a 12 hr light / dark cycle (lights on at 8:00 am; 300 lux/0 lux) with ad libitum access to food (2018 TEKLAD, Harlan) and water. Male mice were housed individually (males) or in groups of 4-5 animals (females) in plastic colony boxes with a sawdust bedding material. […] SAMR1 mice treated with vehicle were included as a control. All drugs were administered via drinking water and diluted in vehicle. Drug concentration was calculated weekly in function of body weight and corrected in function of drinking water consumption. Cognitive function was evaluated by NORT, social behavior was evaluated by RI and anxiety and motor function were evaluated by EPM and OF. When necessary, animals were deeply anesthetized (80 mg/kg sodium pentobarbital) and brain samples (hippocampus, (prefrontal) cortex) were micro-dissected and processed according to the downstream analysis.
The protocol was performed as previously described. Briefly, animals were placed in a 90°- two-arm maze. Mice were habituated to the apparatus for 10 min during 3 consecutive days. On day 4, two identical novel objects (A+A or B+B) were placed at the end of each arm and animals performed a 10-min acquisition trial. A 10-min retention trial was carried out 2 hr after the acquisition trial with object A and B. Time exploring the novel (NO) and the familiar object (FO) was measured and a discrimination Index (DI) was defined as (NO-FO)/(NO+FO). In some experiments, a more restrictive threshold was applied and animals exploring less than 5 sec (NO+FO) were excluded from the analysis (Table S3).
Novel Object Recognition Test (NORT): Time exploring the novel (NO) and the familiar object (FO) was measured and a discrimination Index (DI) was defined as (NO-FO)/(NO+FO). In some experiments, a more restrictive threshold was applied and animals exploring less that 5 sec (NO+FO) were excluded from the analysis (Table S3). Open Field (OF): Locomotor activity was analyzed by video-tracking over the captured images using SMART® (v 2.5.21 (rat) or v3.0 (mice), PanLab, SLU, Spain).

For test [8], the system named is MAO-B. As to conditions: 3 mg/kg/day; cited from earlier work.

T2 sequence (Q8BW75 whole entry): as above

For the molecule `N[C@@H]1C[C@H]1c1ccccc1` (racemic) [TCP, tranylcypromine], the “ED50 potentiation of L-5-HTP-induced symptoms” value in test [1] (p.o. gavage, followed by 100 mg/kg L-5-HTP i.p.) came out at 1.4 mg/kg. In test [2], the “ED50 potentiation of PEA-induced symptoms” value came to 1.1 mg/kg.

Turning to `Cc1nnc(NC(=O)c2cccc([C@@H]3C[C@H]3NC3CCC3)c2)s1` [T-448], the learning function entry in test [3] is given as “improved the learning function”.

`O=C(CCCCCCC(=O)Nc1ccccc1)NO` [SAHA]: the “deficient stress response and low anxiety phenotype” value in test [4] is “rescued”.

With `C#CCN(C)[C@H](C)Cc1ccccc1` [SLG, selegiline], the ED50 in test [1] (mouse, read-out: ED50 potentiation of L-5-HTP-induced symptoms) turned out to be 42.2 mg/kg.

In the case of `N[C@H]1CC[C@H](N[C@@H]2C[C@H]2c2ccccc2)CC1` [Iadademstat], the “cortical synaptic plasticity deficit and working memory” value in test [5] was “reversed cortical synaptic plasticity deficit and the working memory”.

With `C#CCN[C@@H]1CCc2ccccc21` [RSG, rasagiline], the “protection against the MPTP insult” value in test [6] is listed as “full protection”. The NORT discrimination capacity result in test [7] is “tendency for improvement without reaching significance”. Further, the “MAO-B inhibition at the dose used” value in test [8] was “complete MAO-B inhibition”.
